“Also recorded” adds a separate entry of the source. Positions of bridges follow the written chain, without caps; N, C: chain ends. Residues, ends and D or L forms follow the SMILES beside them.
Columns and labels:
Type in all cases: cell-based
[1] = tested on: bovine pulmonary artery endothelial cells; experiment: Disruption of bovine endothelial cell adhesion; details: 500 μg/ml, 30 minutes
Description: For use within one such assay, bovine pulmonary artery endothelial cells may be harvested by sterile ablation and digestion in 0.1% collagenase (type II; Worthington Enzymes, Freehold, N.J.). Cells may be maintained in Dulbecco's minimum essential medium supplemented with 10% fetal calf serum and 1% antibiotic-antimycotic at 37° C. in 7% CO2 in air. Cultures may be passaged weekly in trypsin-EDTA and seeded onto tissue culture plastic at 20,000 cells/cm^2. Endothelial cultures may be used at 1 week in culture, which is approximately 3 days after culture confluency is established. The cells may be seeded onto coverslips and treated (e.g., for 30 minutes) with modulating agent or a control compound at, for example, 500 μg/ml and then fixed with 1% paraformaldehyde. As noted above, disruption of cell adhesion may be determined visually within 24 hours, by observing retraction of the cells from one another. This assay evaluates the effect of a modulating agent on N-cadherin mediated cell adhesion.
Bovine pulmonary artery endothelial cells were harvested by sterile ablation and digestion in 0.1% collagenase (type II; Worthington Enzymes, Freehold, N.J.). Cells were maintained in Dulbecco's […] essential medium (Clonetics, San Diego, Calif.) supplemented with 10% fetal calf serum (Atlantic Biologicals, Nor cross, Ga.) and 1% antibiotic-antimycotic at 37° C. in 7% CO2 in air. Cultures were passaged weekly in trypsin-EDTA (Gibco, Grand Island, N.Y.) and seeded onto tissue culture plastic at 20,000 cells/cm^2 for all experiments. Endothelial cultures were used at 1 week in culture, which is approximately 3 days after culture confluency was established. The cells used in all protocols were between 4th passage and 10th passage. The cells were seeded onto coverslips and treated 30 minutes with N-Ac-CHAVC-NH2 (SEQ ID NO:10) or N-Ac-CHGVC-NH2 (SEQ ID NO:20) at 500 μg/ml and then fixed with 1% paraformaldehyde.

[2] = in vitro; details: human
In short: (§1)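 Cytotoxicity assessed by MTT assay and proliferation by ³H-thymidine incorporation, with peptides tested at concentrations up to 100 μM.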

[3] = in vitro; details: human; remark: listed apart in the source
In short: as §1

[4] = tested on: SKOV3 cells; experiment: Disruption of human ovarian cancer cell (SKOV3) adhesion; details: for activity on SKOV3 cell adhesion: 0.01-1 mg/mL, up to 48 hours; for effect on SKOV3 cell adhesion: final concentration of 1 mg/mL media, within 24 hours
Source text: Within one representative cell adhesion assay, the addition of a modulating agent to cells that express a cadherin results in disruption of cell adhesion. A “cadherin-expressing cell,” as used herein, may be any type of cell that expresses at least one cadherin on the cell surface at a detectable level, using standard techniques such as immunocytochemical protocols (Blaschuk and Farookhi, Dev. Biol. 136:564-567, 1989). Cadherin-expressing cells include endothelial (e.g., bovine pulmonary artery endothelial cells), epithelial and/or cancer cells (e.g., the human ovarian cancer cell line SKOV3 (ATCC #HTB-77)). For example, such cells may be plated under standard conditions that permit cell adhesion in the presence and absence of modulating agent (e.g., 500 μg/mL). Disruption of cell adhesion may be determined visually within 24 hours, by observing retraction of the cells from one another.
The human ovarian cancer cell line SKOV3 (ATCC #HTB-77) expresses N-cadherin. SKOV3 cells were cultured in a modified MEM-based media containing 10% FCS. Cells were grown in T-250 culture flasks and maintained by periodic subculturing. Cyclic peptides were tested on cells grown in individual wells of 96-well culture dishes (surface area of each well was 0.32 cm^2). Cells were harvested from flasks and seeded at a density of 50,000 cells per well in 0.1 mL media containing the cyclic peptides at concentrations of 1, 0.1, or 0.01 mg/mL, or in the absence of cyclic peptide. Media control wells were also established. Cultures were evaluated periodically by microscopic examination under both bright field and phase contrast conditions. Cultures were maintained for 48 hours.

[5] = in vitro; details: human; remark: listed apart in the source
In short: as §1

Row | Compound | IC50 [2] [µM] | IC50 [3] [µM] | IC50 [5] [µM] | effect on endothelial cell monolayer / morphology [1] | activity on SKOV3 cell adhesion [4] | effect on SKOV3 cell adhesion [4] | SKOV3 cell morphology ([4]; 0.5 mg/ml, 24 hours) | SKOV3 cell morphology ([4]; 0.5 or 1 mg/ml, 24-48 hours)
1 | CC(=O)N[C@H]1CSSC[C@@H](C(N)=O)NC(=O)[C@H](C(C)C)NC(=O)CNC(=O)[C@H](Cc2c[nH]cn2)NC1=O [N-Ac-CHGVC-NH2, reference compound] | – | – | – | inactive | – | had no affect on cell adhesion | – | –
2 | CC(=O)N[C@H]1CSSC[C@@H](C(N)=O)NC(=O)[C@H](C(C)C)NC(=O)[C@H](C)NC(=O)[C@H](Cc2c[nH]cn2)NC1=O [N-Ac-CHAVC-NH2, N-Ac-Cys-His-Ala-Val-Cys-NH2] | – | – | – | disrupted the endothelial cell monolayer; also recorded: retracted from one another | – | disrupted SKOV3 cell adhesion | round-up | retract from one another and round-up

Now from value to molecule, other results behind:

Row | IC50 [2] [µM] | IC50 [3] [µM] | IC50 [5] [µM] | Compound | effect on endothelial cell monolayer / morphology [1] | activity on SKOV3 cell adhesion [4] | effect on SKOV3 cell adhesion [4] | SKOV3 cell morphology ([4]; 0.5 mg/ml, 24 hours) | SKOV3 cell morphology ([4]; 0.5 or 1 mg/ml, 24-48 hours)
3 | > 100 | > 100 | > 100 | CC(=O)N[C@H]1CSSC[C@@H](C(N)=O)NC(=O)[C@H](CC(=O)O)NC(=O)[C@H](C(C)C)NC(=O)[C@H](C)NC(=O)[C@H](Cc2c[nH]cn2)NC(=O)[C@H](C)NC1=O [N-Ac-CAHAVDC-NH2, N-Ac-Cys-Ala-His-Ala-Val-Asp-Cys-NH2] (Ac-CAHAVDC-NH2; disulfide 1-7) | had a slight effect; also recorded: retracted from one another | inactive | – | – | –
4 | > 100 | > 100 | > 100 | CC[C@H](C)[C@@H]1NC(=O)[C@H](CC(=O)O)NC(=O)[C@H](C(C)C)NC(=O)[C@H](C)NC(=O)[C@H](Cc2c[nH]cn2)NC(=O)[C@H](C)NC(=O)[C@@H](NC(C)=O)CSSC[C@@H](C(N)=O)NC1=O (Ac-CAHAVDIC-NH2; disulfide 1-8) | had no effect on endothelial cell morphology; also recorded: neither of the cyclic peptides show activity | inactive | – | – | –
5 | > 100 | > 100 | > 100 | CC(=O)N[C@H]1CSSC[C@@H](C(N)=O)NC(=O)[C@H](CO)NC(=O)[C@H](C(C)C)NC(=O)[C@H](C)NC(=O)[C@H](Cc2c[nH]cn2)NC1=O [N-Ac-CHAVSC-NH2, N-Ac-Cys-His-Ala-Val-Ser-Cys-NH2] (Ac-CHAVSC-NH2; disulfide 1-6) | had no effect on endothelial cell morphology | – | – | – | –
